Values quoted from earlier work in patent US20030139466A1, “Methods for pretreating a subject with extracorporeal photopheresis” (priority 2001, published 2003).

Columns and labels:
monocytes = conditions: plasma containing 8-methoxypsoralen and exposure to ultraviolet-A light (photopheresis)
[1] = test system: heart transplantation patients

Row | SMILES | cytokine release (monocytes) | One-year actuarial survival [1] | patients who experience no rejection ([1]; initial postoperative period)
1 | COc1c2occc2cc2ccc(=O)oc12 [8-methoxypsoralen, 9-methoxy-7H-furo[3,2-g][1]-benzopyran-7-one] | releases tumor necrosis factor-alpha, IL-1, IL-6, and possibly IL-8 | – | –
2 | Cn1cnc([N+](=O)[O-])c1Sc1ncnc2nc[nH]c12 [azathioprine] | – | 60% | < 10%
